The species entered for data set [1] is Mus musculus. The data set can be described thus: Compound was evaluated for its potency in CDF1 mice and the serum cholesterol levels were determined. Note: test concentration or dose not given here. The format is ADME, organism-based.
Data set [2] is filed under the species Mus musculus. Put plainly: Compound was evaluated for its potency in CDF1 mice and the serum metabolite levels were determined. Format: ADME, organism-based.
The species entered for data set [3] is Mus musculus. Put plainly: Compound was evaluated for its potency in CDF1 mice and the serum triglyceride levels were determined. Note: test concentration or dose not given here. The format is ADME, organism-based.
The species named for data set [4] is Mus musculus. Put plainly: Evaluated for potency in CDF1 mice and the inhibition of body weight gain was determined. Note: test concentration or dose not given here. Format: functional.
The species named for data set [5] is Mus musculus. The data set can be described thus: Compound was evaluated for its potency in CDF1 mice and the abdominal fat weight was determined. Format: functional, Abdomen.
The species named for data set [6] is Mus musculus. Put plainly: Evaluated for potency in CDF1 mice and the ability of it to decrease feed consumption was determined. Note: test concentration or dose not given here. The format is functional.
For data set [7], the species on record is Mus musculus. The data set can be described thus: Feed efficiency was calculated by dividing body weight gain by feed consumption in mouse. Note: test concentration or dose not given here. Format: functional.
For data set [8], the species on record is Mus musculus. Put plainly: Compound was evaluated for its potency in CDF1 mice and the abdominal fat weight was determined. The format is functional, Abdomen.

`CC[C@H](CC[C@@H](C)[C@H]1CC[C@H]2[C@@H]3CCC4=CC(=O)CC[C@]4(C)[C@H]3CC[C@]12C)C(C)C` displayed a Serum cholesterol in the data set filed under Mus musculus [1] of 164.6 mg/dL. In addition, in the data set listed under Mus musculus [2], the Serum metabolite was 0 mg/dL. For the same molecule, the Serum triglyceride in the data set filed under Mus musculus [3] turned out to be 188.3 mg/dL. The Body weight gain in the data set listed under Mus musculus [4] stood at 0.4 g/day. Further, in the data set listed under Mus musculus [5], the Abdominal fat turned out to be 1 g. In the data set listed under Mus musculus [6], this molecule showed a Feed consumption of 4.94 g/day. Besides, the Feed efficiency in the data set listed under Mus musculus [7] is on record as 0.08.
As for `CC(C)CCC[C@@H](C)[C@H]1CC[C@H]2[C@@H]3CCC4=CC(=O)CC[C@]4(C)[C@H]3CC[C@]12C` [4-CHOLESTEN 3-ONE], in the data set filed under Mus musculus [1], the Serum cholesterol amounted to 115.8 mg/dL. Also, the Serum metabolite in the data set filed under Mus musculus [2] came to 22 mg/dL. The molecule also had a Serum triglyceride in the data set listed under Mus musculus [3] of 218.3 mg/dL. The molecule further returned a Body weight gain in the data set filed under Mus musculus [4] of 0.35 g/day. Also, in the data set filed under Mus musculus [8], the Abdominal fat was 0.68 g. Besides, the Feed consumption in the data set listed under Mus musculus [6] was 5.43 g/day. In addition, in the data set listed under Mus musculus [7], the Feed efficiency is recorded as 0.06.
Molecule `CC(C)CCC[C@@H](C)[C@H]1CC[C@H]2[C@@H]3CC=C4CC(=O)CC[C@]4(C)[C@H]3CC[C@]12C` [CHOLEST-5-EN-3-ONE] yielded a Serum cholesterol in the data set listed under Mus musculus [1] of 122.1 mg/dL. For the same molecule, the Serum metabolite in the data set listed under Mus musculus [2] was found to be 0 mg/dL. For the same molecule, the Serum triglyceride in the data set listed under Mus musculus [3] was 87.5 mg/dL. This molecule showed a Body weight gain in the data set listed under Mus musculus [4] of -0.1 g/day. This molecule also displayed an Abdominal fat in the data set listed under Mus musculus [5] of 0.48 g. The Feed consumption in the data set listed under Mus musculus [6] came to 3.62 g/day. The Feed efficiency in the data set filed under Mus musculus [7] is listed as 0.03.
For `CC(C)CCC[C@@H](C)[C@H]1CC[C@H]2[C@@H]3CC[C@H]4CC(=O)CC[C@]4(C)[C@H]3CC[C@]12C` [CHOLESTAN-3-ONE], the Serum cholesterol in the data set filed under Mus musculus [1] came out at 134.1 mg/dL. Also, the Serum metabolite in the data set listed under Mus musculus [2] was 23 mg/dL. Also, the Serum triglyceride in the data set listed under Mus musculus [3] was 201.7 mg/dL. Further, the Body weight gain in the data set filed under Mus musculus [4] is 0.28 g/day. In the data set filed under Mus musculus [5], the Abdominal fat was determined as 0.92 g. Further, the Feed consumption in the data set filed under Mus musculus [6] amounted to 4.6 g/day. In the data set listed under Mus musculus [7], the Feed efficiency is 0.06.
